How the values were obtained:
MV4-11 cells = assay: MV4-11 cellular proliferative assay, Assay Format B (CTG 2.0, 168 h); type: cell-based; details: Homo sapiens, 168 h (7 days), CTG 2.0, read-out: IC50 (MV4-11 cellular proliferative assay, Assay format B)
Protocol: MV4-11 cells at a confluency of ~50-80% was used for cell growth assay. 600 cells/well in a 384-well opaque cell culture plate (6007680; Perkin Elmer) were seeded in 40 μL of complete medium (IMDM+10% FBS+1X Penicillin-Streptomycin). Cells were incubated overnight at 37° C., 5% CO2. 10 mM DMSO stocks were prepared, cells were treated with 10 concentrations of test compounds starting from 1 uM or 100 nM, 3-fold dilution in 10 uL (5×concentration) of complete medium. Final DMSO concentration was 0.3%. Culture plates were centrifuged at 40×g, 30s. Cells were incubated with compounds for 168 h (7 days). After 7 days, 20 uL CTG 2.0 reagent (G9242; Promega) was added per well and luminescence reading was taken in Envision Xcite 2105 multimode plate reader. Data was analyzed in GraphPad Prism 10.0 and data was shown as % viability with respect to DMSO control and dose-response curves were generated using four parameter logistic regression. Assay quality was determined by z-factor calculation using positive and negative controls.

MLLT1 = biological target: T1, MLLT1 (Homo sapiens, UniProt Q03111); assay: MLLT1 degradation assay in MV4-11 cells (JESS chemiluminescent detection), three concentrations, 24 h; type: cell-based; details: with respect to DMSO control
T1 construct: host or cells: MV4-11
T1 sequence (Q03111 1-559): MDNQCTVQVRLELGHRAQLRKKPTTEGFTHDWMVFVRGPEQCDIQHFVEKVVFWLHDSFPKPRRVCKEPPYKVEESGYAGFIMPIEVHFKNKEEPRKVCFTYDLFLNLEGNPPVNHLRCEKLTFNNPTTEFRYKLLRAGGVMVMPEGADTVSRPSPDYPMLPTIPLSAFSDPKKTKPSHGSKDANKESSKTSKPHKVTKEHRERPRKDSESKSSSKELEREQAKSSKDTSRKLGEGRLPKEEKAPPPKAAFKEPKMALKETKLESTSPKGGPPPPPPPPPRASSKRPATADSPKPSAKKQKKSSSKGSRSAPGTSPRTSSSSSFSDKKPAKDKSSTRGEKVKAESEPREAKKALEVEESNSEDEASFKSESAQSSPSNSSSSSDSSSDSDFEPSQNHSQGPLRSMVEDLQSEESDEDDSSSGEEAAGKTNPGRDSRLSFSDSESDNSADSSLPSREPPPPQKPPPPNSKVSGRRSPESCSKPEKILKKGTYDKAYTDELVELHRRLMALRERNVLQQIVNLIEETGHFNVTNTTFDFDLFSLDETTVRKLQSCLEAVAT
How it was run: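 MV4-11 cells treated 24 h at 37° C, 5% CO2 with 1000, 100 and 10 nM compound (0.1% DMSO final). MLLT1 quantified by automated capillary chemiluminescent immunodetection; band peak area expressed as % degradation relative to DMSO control.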

SMILES	IC50 (MV4-11 cells)	MLLT1% Degradation @ 0.01 μM (MLLT1)	MLLT1% Degradation @ 0.1 μM (MLLT1)	MLLT1% Degradation @ 1 μM (MLLT1)
CN1CCC[C@@H]1c1cc2cnc(NC(=O)c3ccc(OCCCC4CCN(c5cccc6c5CN(C5CCC(=O)NC5=O)C6=O)CC4)cc3F)cc2[nH]1 (stereo partly drawn) [Example 209, 4-(3-(1-(2-(2,6-dioxopiperidin-3-yl)-1-oxoisoindolin-4-yl)piperidin-4-yl)propoxy)-2-fluoro-N-(2-((R)-1-methylpyrrolidin-2-yl)-1H-pyrrolo[3,2-c]pyridin-6-yl)benzamide]	≤ 100 nM	A (Category A: A ≥ 75% degradation)	A (Category A: A ≥ 75% degradation)	A (Category A: A ≥ 75% degradation)
CN1CCC[C@@H]1c1cc2cnc(NC(=O)c3ccc(N4CCN(CC5CCN(c6cccc7c6CN(C6CCC(=O)NC6=O)C7=O)CC5)CC4)nc3)cc2[nH]1 (stereo partly drawn) [Example 169, 6-(4-((1-(2-(2,6-dioxopiperidin-3-yl)-1-oxoisoindolin-4-yl)piperidin-4-yl)methyl)piperazin-1-yl)-N-(2-((R)-1-methylpyrrolidin-2-yl)-1H-pyrrolo[3,2-c]pyridin-6-yl)nicotinamide]	≤ 100 nM	B (Category B: 50% ≤ B < 75% degradation)	A (Category A: A ≥ 75% degradation)	A (Category A: A ≥ 75% degradation)
CN1CCC[C@@H]1c1cc2cnc(NC(=O)c3ccc(OCCC4CCN(c5cccc6c5CN(C5CCC(=O)NC5=O)C6=O)CC4)cc3)cc2[nH]1 (mixture of isomers) [Example 79, 4-(2-(1-(2-(2,6-dioxopiperidin-3-yl)-1-oxoisoindolin-4-yl)piperidin-4-yl)ethoxy)-N-(2-((R)-1-methylpyrrolidin-2-yl)-1H-pyrrolo[3,2-c]pyridin-6-yl)benzamide]	≤ 100 nM	A (Category A: A ≥ 75% degradation)	A (Category A: A ≥ 75% degradation)	A (Category A: A ≥ 75% degradation)
CN1CCC[C@@H]1c1cc2cnc(NC(=O)c3ccc(CCCC#Cc4cccc5c4CN([C@@H]4CCC(=O)NC4=O)C5=O)cc3)cc2[nH]1 (relative stereo) [Example 103, 4-(5-(2-((rel-R)-2,6-dioxopiperidin-3-yl)-1-oxoisoindolin-4-yl)pent-4-yn-1-yl)-N-(2-((R)-1-methylpyrrolidin-2-yl)-1H-pyrrolo[3,2-c]pyridin-6-yl)benzamide]	≤ 100 nM	A (Category A: A ≥ 75% degradation)	A (Category A: A ≥ 75% degradation)	A (Category A: A ≥ 75% degradation)
CN1CCC[C@@H]1c1cc2cnc(NC(=O)c3ccc(OCC#Cc4cccc5c4CN(C4CCC(=O)NC4=O)C5=O)nc3)cc2[nH]1 (stereo partly drawn) [Example 2, 6-((3-(2-(2,6-dioxopiperidin-3-yl)-1-oxoisoindolin-4-yl)prop-2-yn-1-yl)oxy)-N-(2-((R)-1-methylpyrrolidin-2-yl)-1H-pyrrolo[3,2-c]pyridin-6-yl)nicotinamide]	≤ 100 nM	A (Category A: A ≥ 75% degradation)	A (Category A: A ≥ 75% degradation)	A (Category A: A ≥ 75% degradation)
CN1CCC[C@@H]1c1cc2cnc(NC(=O)c3cc(F)c(OCCC4CCN(c5cccc6c5CN(C5CCC(=O)NC5=O)C6=O)CC4)cc3F)cc2[nH]1 (stereo partly drawn) [Example 230, 4-(2-(1-(2-(2,6-dioxopiperidin-3-yl)-1-oxoisoindolin-4-yl)piperidin-4-yl)ethoxy)-2,5-difluoro-N-(2-((R)-1-methylpyrrolidin-2-yl)-1H-pyrrolo[3,2-c]pyridin-6-yl)benzamide]	≤ 100 nM	A (Category A: A ≥ 75% degradation)	A (Category A: A ≥ 75% degradation)	A (Category A: A ≥ 75% degradation)
C[C@@H]1CN(CC2CCN(c3cccc4c3CN(C3CCC(=O)NC3=O)C4=O)CC2)CCN1c1ccc(C(=O)Nc2cc3[nH]c([C@H]4CCCN4C)cc3cn2)cn1 (stereo partly drawn) [Example 163, 6-((2R)-4-((1-(2-(2,6-dioxopiperidin-3-yl)-1-oxoisoindolin-4-yl)piperidin-4-yl)methyl)-2-methylpiperazin-1-yl)-N-(2-((R)-1-methylpyrrolidin-2-yl)-1H-pyrrolo[3,2-c]pyridin-6-yl)nicotinamide]	≤ 100 nM	A (Category A: A ≥ 75% degradation)	A (Category A: A ≥ 75% degradation)	A (Category A: A ≥ 75% degradation)
CN1CCC[C@@H]1c1[nH]c2cc(NC(=O)c3ccc(N4CCC(OCC5CCN(c6cccc7c6CN(C6CCC(=O)NC6=O)C7=O)CC5)CC4)nc3)ncc2c1Cl (stereo partly drawn) [Example 191, N-(3-chloro-2-((R)-1-methylpyrrolidin-2-yl)-1H-pyrrolo[3,2-c]pyridin-6-yl)-6-(4-((1-(2-(2,6-dioxopiperidin-3-yl)-1-oxoisoindolin-4-yl)piperidin-4-yl)methoxy)piperidin-1-yl)nicotinamide]	≤ 100 nM	A (Category A: A ≥ 75% degradation)	A (Category A: A ≥ 75% degradation)	A (Category A: A ≥ 75% degradation)
CN1CCC[C@@H]1c1cc2cnc(NC(=O)c3ccc(OC4CN(CC5CCN(c6ccc7c(c6)C(=O)N(C6CCC(=O)NC6=O)C7=O)CC5)C4)cc3)cc2[nH]1 (stereo partly drawn) [Example 157, 4-((1-((1-(2-(2,6-dioxopiperidin-3-yl)-1,3-dioxoisoindolin-5-yl)piperidin-4-yl)methyl)azetidin-3-yl)oxy)-N-(2-((R)-1-methylpyrrolidin-2-yl)-1H-pyrrolo[3,2-c]pyridin-6-yl)benzamide]	≤ 100 nM	B (Category B: 50% ≤ B < 75% degradation)	A (Category A: A ≥ 75% degradation)	A (Category A: A ≥ 75% degradation)
CN1CCC[C@@H]1c1cc2cnc(NC(=O)c3ccc(N4CCN(CC5CCN(c6cccc7c6CN([C@H]6CCC(=O)NC6=O)C7=O)CC5)CC4)cc3)cc2[nH]1 (relative stereo) [Example 117, 4-(4-((1-(2-((rel-S)-2,6-dioxopiperidin-3-yl)-1-oxoisoindolin-4-yl)piperidin-4-yl)methyl)piperazin-1-yl)-N-(2-((R)-1-methylpyrrolidin-2-yl)-1H-pyrrolo[3,2-c]pyridin-6-yl)benzamide]	≤ 100 nM	B (Category B: 50% ≤ B < 75% degradation)	A (Category A: A ≥ 75% degradation)	B (Category B: 50% ≤ B < 75% degradation)
CN1CCC[C@@H]1c1cc2cnc(NC(=O)c3cccc(C4CCN(c5cccc6c5C(=O)N(C5CCC(=O)NC5=O)C6=O)CC4)c3)cc2[nH]1 (stereo partly drawn) [Example 14, 3-(1-(2-(2,6-dioxopiperidin-3-yl)-1,3-dioxoisoindolin-4-yl)piperidin-4-yl)-N-(2-((R)-1-methylpyrrolidin-2-yl)-1H-pyrrolo[3,2-c]pyridin-6-yl)benzamide]	≤ 100 nM	B (Category B: 50% ≤ B < 75% degradation)	A (Category A: A ≥ 75% degradation)	A (Category A: A ≥ 75% degradation)

— patent US20260191968A1, “PROTAC DEGRADERS OF MLLT1 AND/OR MLLT3” (DARK BLUE THERAPEUTICS LTD, priority 2024, published 2026)
